{"source": "patent US9752168B2", "about": "“Compositions comprising a polypeptide having cellulolytic enhancing activity and a quinone compound and uses thereof” (priority 2010, dated 2017)", "key": {"[1]": {"system": "Trichoderma reesei cellulase composition", "assay": "Hydrolysis of AVICEL® (microcrystalline cellulose) by the T. reesei cellulase composition", "conditions": "for quinone compound effect(no GH61) (ratio, Equation 2): AVICEL®; for Percent conversion of AVICEL®: no quinone compound, cellulase 4 mg protein/g cellulose, GH61 polypeptide where present 0.4 mg/g cellulose (10% w/w of cellulase)"}, "[2]": {"system": "Trichoderma reesei cellulase composition", "conditions": "milled washed PCS"}, "[3]": {"system": "Trichoderma reesei cellulase composition", "conditions": "milled unwashed PCS; 5 mM quinone; 1, 3, and 7 days (white bars)"}, "[4]": {"system": "Thielavia terrestris GH61E polypeptide", "format": "biochemical", "conditions": "AVICEL®, T. terrestris GH61E 0.4 or 2 mg per ml"}, "[5]": {"system": "Talaromyces stipitatus GH61 polypeptide", "format": "biochemical", "conditions": "T. stipitatus GH61 0.4 or 2 mg per g cellulose"}, "[6]": {"target": "Aspergillus fumigatus GH61B polypeptide (Aspergillus fumigatus, UniProt Q4WP32)", "sequence (Q4WP32 22-250)": "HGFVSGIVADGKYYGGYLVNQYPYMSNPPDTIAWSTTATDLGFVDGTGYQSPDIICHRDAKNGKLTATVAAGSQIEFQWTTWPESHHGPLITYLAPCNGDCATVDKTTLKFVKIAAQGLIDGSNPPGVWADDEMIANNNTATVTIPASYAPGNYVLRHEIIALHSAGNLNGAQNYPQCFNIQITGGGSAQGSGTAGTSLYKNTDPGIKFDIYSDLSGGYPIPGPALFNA", "format": "biochemical", "conditions": "A. fumigatus GH61B 0.4 or 2 mg per ml"}, "[7]": {"system": "Penicillium pinophilum GH61A polypeptide", "format": "biochemical", "conditions": "P. pinophilum GH61A 0.4 or 2 mg per ml"}, "[8]": {"system": "A. oryzae CEL3A beta-glucosidase", "format": "biochemical", "conditions": "96 hours at 50° C."}, "[9]": {"target": "A. oryzae CEL3A beta-glucosidase (Aspergillus oryzae, UniProt Q2UUD6)", "format": "biochemical", "conditions": "96 hours at 50° C."}, "[10]": {"conditions": "5 mM quinone, 1, 3, and 7 days (white bars)"}, "[11]": {"conditions": "AVICEL®, 5 mM quinone present, days 3 and 7"}, "[12]": {"conditions": "AVICEL®, 5 mM quinone, day 1 and 3"}, "[13]": {"conditions": "component added alone, beta-glucosidase or GH61A 10 mg protein per g cellulose, adrenochrome […] w/w, 4-tert-butyl-5-methoxy-1,2-benzoquinone 0.15% w/w"}, "[14]": {"conditions": "quinone with T. aurantiacus GH61A polypeptide (10 mg/g cellulose), no beta-glucosidase"}, "[15]": {"conditions": "quinone added to A. oryzae CEL3A beta-glucosidase (10 mg/g cellulose), no GH61A"}, "[16]": {"conditions": "quinone with T. aurantiacus GH61A polypeptide (10 mg/g cellulose) and A. oryzae CEL3A beta-glucosidase (10 mg/g cellulose)"}}, "note": "Like-named read-outs stand apart in the source and are kept apart here."}
{"molecule": "O=C1c2ccccc2C(=O)c2c(O)ccc(O)c21", "values": [{"measurement": "quinone compound effect(no GH61) (ratio, Equation 2)", "setting": "[1]; 1 mM quinone, 3 days of hydrolysis", "result": "0.932±0.0123"}, {"measurement": "quinone compound effect(no GH61) (ratio, Equation 2)", "setting": "[1]; 1 mM quinone, 7 days of hydrolysis", "result": "1.01±0.0120"}]}
{"molecule": "O=C1C=C(O)C(=O)c2ccccc21", "values": [{"measurement": "quinone compound effect(no GH61) (ratio, Equation 2)", "setting": "[1]; 1 mM quinone, FIG. 1E white bars", "result": "less than 1"}]}
{"molecule": "COC1=C(OC)C(=O)C(C)=CC1=O", "values": [{"measurement": "quinone compound effect(no GH61) (ratio, Equation 2)", "setting": "[2]; 10 mM quinone, 1 and 3 days, cellulase 2 mg per g cellulose", "result": "less than 1"}, {"measurement": "quinone compound effect(no GH61) (ratio, Equation 2)", "setting": "[1]; 5 mM quinone, day 3 and 7", "result": "less than 1"}, {"measurement": "quinone compound effect(no GH61) (ratio, Equation 2)", "setting": "[1]; 10 mM quinone, 1 and 3 days", "result": "less than 1"}, {"measurement": "quinone compound effect(no GH61) (ratio, Equation 2)", "setting": "[3]", "result": "greater than 1"}]}
{"molecule": "O=C1C=CC(=O)C=C1", "note": "[1,4-benzoquinone]", "values": [{"measurement": "quinone compound effect(no GH61) (ratio, Equation 2)", "setting": "[1]; [10]", "result": "less than 1"}]}
{"molecule": "O=C1C=CC(=O)c2ccccc21", "note": "[1,4-naphthoquinone]", "values": [{"measurement": "quinone compound effect(no GH61) (ratio, Equation 2)", "setting": "[2]; [10]", "result": "less than 1"}, {"measurement": "quinone compound effect(no GH61) (ratio, Equation 2)", "setting": "[1]; [10]", "result": "less than 1"}]}
{"molecule": "CC1=CC(=O)C=CC1=O", "note": "[2-methyl-1,4-benzoquinone]", "values": [{"measurement": "GH61 effect (ratio, Equation 4)", "setting": "[4]; 5 mM quinone present, days 3 and 7", "result": "greater than 1"}, {"measurement": "quinone compound effect(+GH61) (ratio, Equation 3)", "setting": "[4]; 5 mM quinone, day 7", "result": "less than 1"}, {"measurement": "Day 7 hydrolysis of AVICEL® in the presence of quinone and GH61 polypeptide", "setting": "[5]; 5 mM quinone, day 7", "result": "not significantly impacted"}, {"measurement": "GH61 effect (ratio, Equation 4)", "setting": "[5]; [11]", "result": "greater than 1"}, {"measurement": "quinone compound effect(+GH61) (ratio, Equation 3)", "setting": "[5]; [12]", "result": "less than 1"}, {"measurement": "Day 7 hydrolysis of AVICEL® in the presence of quinone and GH61 polypeptide", "setting": "[6]; 5 mM quinone, day 7", "result": "not significantly impacted"}, {"measurement": "GH61 effect (ratio, Equation 4)", "setting": "[6]; [11]", "result": "greater than 1"}, {"measurement": "quinone compound effect(+GH61) (ratio, Equation 3)", "setting": "[6]; [12]", "result": "less than 1"}, {"measurement": "Day 7 hydrolysis of AVICEL® in the presence of quinone and GH61 polypeptide", "setting": "[7]; 5 mM quinone, day 7", "result": "not significantly impacted"}, {"measurement": "GH61 effect (ratio, Equation 4)", "setting": "[7]; [11]", "result": "greater than 1"}, {"measurement": "quinone compound effect(+GH61) (ratio, Equation 3)", "setting": "[7]; [12]", "result": "less than 1"}, {"measurement": "quinone compound effect(no GH61) (ratio, Equation 2)", "setting": "[1]; [10]", "result": "less than 1"}]}
{"molecule": "COC1=CC(=O)C(=O)C=C1C(C)(C)C", "note": "[4-tert-butyl-5-methoxy-1,2-benzoquinone]", "values": [{"measurement": "conversion of PASC", "setting": "[8]; [13]", "result": "no significant conversion"}, {"measurement": "conversion of PASC", "setting": "[8]; [14]", "result": "0.8±0.6", "unit": "%"}, {"measurement": "conversion of PASC", "setting": "[9]; [15]", "result": "1.6±0.1", "unit": "%"}, {"measurement": "conversion of PASC", "setting": "[9]; [16]", "result": "29.9±3.2", "unit": "%"}]}
{"molecule": "CN1CC(O)C2=CC(=O)C(=O)C=C21", "note": "(stereo not shown) [adrenochrome, 3-hydroxy-1-methyl-5,6-indolinedione]", "values": [{"measurement": "conversion of PASC", "setting": "[8]; [13]", "result": "no significant conversion"}, {"measurement": "conversion of PASC", "setting": "[8]; [14]", "result": "0.1±0.1", "unit": "%"}, {"measurement": "conversion of PASC", "setting": "[9]; [15]", "result": "0.3±0.3", "unit": "%"}, {"measurement": "conversion of PASC", "setting": "[9]; [16]", "result": "8.5±2.0", "unit": "%"}]}
{"molecule": "P. pinophilum GH61A polypeptide: GH61A polypeptide having cellulolytic enhancing activity (SEQ ID NO: 32), recombinantly prepared according to WO 2011/005867 (protein, listed as Penicillium pinophilum) MPSTKVAALSAVLALASTVAGHGFVQNIVIDGKSYSGYLVNQFPYESNPPAVIGWATTATDLGFVAPSEYTNADIICHKNATPGALSAPVAAGGTVELQWTTWPDSHHGPVISYLANCNGNCSTVDKTKLDFVKIDQGGLIDDTTPPGTWASDKLIAANNSWTVTIPSTIAPGNYVLRHEIIALHSAGNADGAQNYPQCINLEITGSGTAAPSGTAGEKLYTSTDPGILVNIYQSLSTYVIPGPTLWSGAANGAVATGSATAVATTATASATATPTTLVTSVAPASSTFATAVVTTVAPAVTDVVTVTDVVTVTTVITTTVL", "values": [{"measurement": "Percent conversion of AVICEL®", "setting": "[1]; 1 day", "result": "14.1±0.4", "unit": "%"}, {"measurement": "Percent conversion of AVICEL®", "setting": "[1]; 3 days", "result": "28.5±0.5", "unit": "%"}, {"measurement": "Percent conversion of AVICEL®", "setting": "[1]; 7 days", "result": "46±2", "unit": "%"}]}
{"molecule": "T. stipitatus GH61 polypeptide: GH61 polypeptide having cellulolytic enhancing activity (SEQ ID NO: 164), recombinantly prepared as described in Example 3 (protein, listed as Talaromyces stipitatus) MPSTKVAALSAVLALASTVAGHGFVQNIVIDGKSYTGYLVNQYPYQSNPPAVIGWSTTATDLGFVDGSGYTNPDIICHKNAKPGQLSAPVAAGGKVELEWTTWPESHHGPVISYLANCNGDCTTVDKTKLEFVKIDQRGLIDDSNPPGTWAADQLIAANNSWTVTIPESIAPGNYVLRHEIIALHSANNATGAQNYPQCINLQITGSGTANPSGTPGEKLYTPTDPGILVNIYQSLSSYVIPGPTLWSGAAAHVVATAAGSATGVASATATPTTLVTAVSSPTGAPSVVTPEAPSVTSFAPVVTVTDVVTVTTVITTTIS", "values": [{"measurement": "Percent conversion of AVICEL®", "setting": "[1]; 1 day", "result": "13.6±0.4", "unit": "%"}, {"measurement": "Percent conversion of AVICEL®", "setting": "[1]; 3 days", "result": "27.9±0.2", "unit": "%"}, {"measurement": "Percent conversion of AVICEL®", "setting": "[1]; 7 days", "result": "44.7±0.5", "unit": "%"}]}
{"molecule": "T. reesei GH61B polypeptide: GH61B polypeptide having cellulolytic enhancing activity (SEQ ID NO: 16), recombinantly prepared according to WO 2007/089290 A2 (protein, listed as Trichoderma reesei) MKSCAILAALGCLAGSVLGHGQVQNFTINGQYNQGFILDYYYQKQNTGHFPNVAGWYAEDLDLGFISPDQYTTPDIVCHKNAAPGAISATAAAGSNIVFQWGPGVWPHPYGPIVTYVVECSGSCTTVNKNNLRWVKIQEAGINYNTQVWAQQDLINQGNKWTVKIPSSLRPGNYVFRHELLAAHGASSANGMQNYPQCVNIAVTGSGTKALPAGTPATQLYKPTDPGILFNPYTTITSYTIPGPALWQG", "values": [{"measurement": "Percent conversion of AVICEL®", "setting": "[1]; 1 day", "result": "13.6±0.4", "unit": "%"}, {"measurement": "Percent conversion of AVICEL®", "setting": "[1]; 3 days", "result": "29±2", "unit": "%"}, {"measurement": "Percent conversion of AVICEL®", "setting": "[1]; 7 days", "result": "44±2", "unit": "%"}]}
{"molecule": "T. terrestris GH61E polypeptide: GH61E polypeptide having cellulolytic enhancing activity (SEQ ID NO: 8), recombinantly prepared according to WO 2005/074647 A2 (protein, listed as Thielavia terrestris) MLANGAIVFLAAALGVSGHYTWPRVNDGADWQQVRKADNWQDNGYVGDVTSPQIRCFQATPSPAPSVLNTTAGSTVTYWANPDVYHPGPVQFYMARVPDGEDINSWNGDGAVWFKVYEDHPTFGAQLTWPSTGKSSFAVPIPPCIKSGYYLLRAEQIGLHVAQSVGGAQFYISCAQLSVTGGGSTEPPNKVAFPGAYSATDPGILINIYYPVPTSYQNPGPAVFSC", "values": [{"measurement": "Percent conversion of AVICEL®", "setting": "[1]; 1 day", "result": "14.7±0.3", "unit": "%"}, {"measurement": "Percent conversion of AVICEL®", "setting": "[1]; 3 days", "result": "29.2±0.4", "unit": "%"}, {"measurement": "Percent conversion of AVICEL®", "setting": "[1]; 7 days", "result": "49.3±0.5", "unit": "%"}]}
{"molecule": "A. oryzae CEL3A beta-glucosidase: beta-glucosidase (SEQ ID NO: 112) recombinantly prepared as described in WO 2004/099228 (protein, listed as Aspergillus oryzae) MKLGWIEVAALAAASVVSAKDDLAYSPPFYPSPWADGQGEWAEVYKRAVDIVSQMTLTEKVNLTTGTGWQLERCVGQTGSVPRLNIPSLCLQDSPLGIRFSDYNSAFPAGVNVAATWDKTLAYLRGQAMGEEFSDKGIDVQLGPAAGPLGAHPDGGRNWEGFSPDPALTGVLFAETIKGIQDAGVIATAKHYIMNEQEHFRQQPEAAGYGFNVSDSLSSNVDDKTMHELYLWPFADAVRAGVGAVMCSYNQINNSYGCENSETLNKLLKAELGFQGFVMSDWTAHHSGVGAALAGLDMSMPGDVTFDSGTSFWGANLTVGVLNGTIPQWRVDDMAVRIMAAYYKVGRDTKYTPPNFSSWTRDEYGFAHNHVSEGAYERVNEFVDVQRDHADLIRRIGAQSTVLLKNKGALPLSRKEKLVALLGEDAGSNSWGANGCDDRGCDNGTLAMAWGSGTANFPYLVTPEQAIQNEVLQGRGNVFAVTDSWALDKIAAAARQASVSLVFVNSDSGEGYLSVDGNEGDRNNITLWKNGDNVVKTAANNCNNTVVIIHSVGPVLIDEWYDHPNVTGILWAGLPGQESGNSIADVLYGRVNPGAKSPFTWGKTRESYGSPLVKDANNGNGAPQSDFTQGVFIDYRHFDKFNETPIYEFGYGLSYTTFELSDLHVQPLNASRYTPTSGMTEAAKNFGEIGDASEYVYPEGLERIHEFIYPWINSTDLKASSDDSNYGWEDSKYIPEGATDGSAQPRLPASGGAGGNPGLYEDLFRVSVKVKNTGNVAGDEVPQLYVSLGGPNEPKVVLRKFERIHLAPSQEAVWTTTLTRRDLANWDVSAQDWTVTPYPKTIYVGNSSRKLPLQASLPKAQ", "values": [{"measurement": "conversion of PASC", "setting": "[8]; [13]", "result": "1.5±0.3", "unit": "%"}]}
